These results are taken from PMC10257291, “Biological activities of extracts and compounds from Thai Kae-Lae (Maclura cochinchinensis (Lour.) Corner)” (BMC Complementary Medicine and Therapies, 2023).

“Also recorded” adds a separate entry of the source.

Experiment [1] concerns NO. Briefly: Nitric oxide measurement in LPS-stimulated RAW 264.7 cells. It counts as cell-based, mouse. The conditions noted are these: sample at IC20 value; vs dexamethasone; LPS 1 μg/mL.
Description: Mouse monocyte macrophage RAW 264.7 cells (American Type Culture Collection, ATCCTIB-71) were stimulated with lipopolysaccharide (LPS) or phytohemagglutinin (PHA). The LPS treated RAW 264.7 cells served as a vehicle control, of which the NO production, and the secreted cytokines were defined as 100%, whereas a negative control was non-treated RAW 264.7 cells. Dexamethasone (an anti-inflammatory drug) was used as a positive control.
Briefly, 1 × 10^5 cells/well in DMEM were seeded and incubated for 24 h in a CO2 incubator set at 37 °C and 5% CO2/95% humidified air. Then cells were treated with Kae-Lae extracts or purified compounds. Following 2-h of incubation in a CO2 incubator, LPS was added to make a final concentration of 1 μg/mL. After 24 h in a CO2 incubator, the media were removed and centrifuged at 13,500 × g for 10 min. The supernatant was analysed for the level of NO using Total Nitric Oxide Assay kit, according to the manufacturer’s protocol (Invitrogen™, ThermoFisher Scientific, MA, USA). The optical density was measured at 540 nm using a multimode detector (Beckman CoulterDTX880, Fullerton, CA, USA).
NO inhibitions were calculated using the following equation:
3 %NOinhibition=A-B/A×100
A is the optical density of the mixture without the sample, while B is the optical density of the mixture with the sample. Dexamethasone was used as a positive control. […]
For experiment [2], the system named is WT1 protein. Briefly: WT1 protein expression by Western blot in EoL-1 cells. It counts as cell-based, human. The note with it: IC20 value, 48 h, vs vehicle control. The procedure:
(§1) Leukaemic stem cells (KG-1a) and leukaemic cells (EoL-1 and K562) were used as cell models which overexpressed WT1 protein expression. Cells were treated with crude fractional extracts and active compounds at a 20% growth inhibition (IC20 value) of each extract. Following 48-h of incubation, cells were washed. The whole protein was extracted using RIPA buffer. The protein concentration was determined by the Pierce™ BCA Protein Assay Kit (ThermoFisher Scientific, IL, USA). Extracted protein sample at 30 − 50 μg was loaded to 12% SDS-PAGE and then transferred to PVDF membranes. The method was done as previously described. The specific protein bands were determined by Luminata™ Forte Western HRP substrate (Merck, Darmstadt, Germany) and exposed to X-ray film (Sakura, Japan). Quantity One 1-D Analysis software (Bio-Rad, USA) was used to quantify densitometry. The density values of WT1 bands were normalized to GAPDH bands.

Experiment [3] concerns WT1 protein. Briefly: WT1 protein expression by Western blot in K562 cells. It counts as cell-based, human. The note with it: IC20 value, 48 h, vs vehicle control. As to the method: as §1
A general note: Immunoblotting shows a protein as a band on a membrane.

As for `O=c1c(O)c(-c2ccc(O)c(O)c2)oc2cc(O)cc(O)c12` [Quercetin, quercetin], the NO inhibition result in experiment [1] was “potent inhibitory activities against NO; also recorded: significantly more potent inhibition of IL-2, TNF-α, and NO than dexamethasone”.
For the molecule `Oc1ccc(/C=C/c2cc(O)cc(O)c2)cc1` [Resveratrol, resveratrol], the “suppression of WT1 protein expression in EoL-1 cells” value in experiment [2] amounted to 76.73%; in experiment [2] (listed as resveratrol) it was 76.73 ± 4.08%. In addition, in experiment [3], the “suppression of WT1 protein expression in K562 cells” value is recorded as 53.78 ± 4.28%.
